Reference: patent EP1721614A1, “Epirubicine hydrochloride for treating hepatitis C virus” (Institut National de la Santé et de la Recherche Médicale …, priority 2005, dated 2006)
Where a name gives a salt, the structure may show the parent alone.

Tests used:
[1] = cited from earlier work
in vitro = settings: human, huh7 cells
[2] = tested on: HCV subgenomic replicon stably transfected into Huh7 cell lines (clone BM4.5); experiment: anti-HCV activity in HCV subgenomic replicon system (Northern blot of HCV RNA, normalised to actin); assay type: cell-based, hepatitis C virus (HCV)
Protocol: The potential antiviral (anti HCV) activity of epirubicin hydrochloride was tested in in vitro cell culture model using the HCV subgenomic replicon stably transfected into Huh7 cell lines (clone BM4.5) (Ju-Tao Gao et al., J Virol. 2001).
Huh7 cells containing the HCV replicon were grown in cell culture medium in presence of varying concentration of epirubicin. The media and drug were changed everyday for 5 days. After 5 days of treatment the cells were lysed and total RNA extracted. The isolated RNA was then assayed for presence of HCV replication by Northern Blot analysis, using a HCV probe targeting the NS5B region of HCV.
The cell lines were treated everyday with epirubicin from concentration of 20 nM to 2 nM for 5 days and at the end of treatment RNA from the treated cells were isolated. The total RNA was then probed with a HCV specific probe using Northern blot analysis to detect the HCV RNA. The resulting blot was then exposed to phosphorimager densitometry and the viral replication quantified.

For `COc1cccc2c1C(=O)c1c(O)c3c(c(O)c1C2=O)C[C@@](O)(C(=O)CO)C[C@@H]3O[C@H]1C[C@H](N)[C@@H](O)[C@H](C)O1` [epirubicin hydrochloride, 7-O-(3'-amino-2',3',6'-trideoxy-α,β-L-arabinohexpyranosyl)-adriamycinone hydro-chloride], the maximum cumulative dose ([1]; antitumor therapy in man) is listed as 900 - 1000 mg/m^2, the “"safe" dose (total cumulative dose, Kaplan-Meier plot of cumulative probability of developing congestive heart failure)” value ([1]; man) is listed as 100 - 150 mg/m^2 and the CC50 (in vitro) is listed as over 100 nM. The selectivity index ([2]; CC50 in Huh7 cells versus IC50 in HCV replicon system) was 25 and the IC50 ([2]; Hepatitis C virus, Huh-7, 120 h, Huh7 replicon cells, 5 days of treatment, Figure 2, read-out: 50% inhibitory concentration (IC50), anti-HCV activity measured in HCV replicon system) was 3 to 5 nM.
